Reference: paper PMC3930514, “Deletion of Ubiquitin Fold Modifier Protein Ufm1 Processing Peptidase Ufsp in L. donovani Abolishes Ufm1 Processing and Alters Pathogenesis” (PLoS Neglected Tropical Diseases, 2014)

Assays:
[1] = target: T1, LdUfsp (recombinant Ufsp, rLdUfsp) (Leishmania donovani, UniProt E9BRI1); test: FRET cleavage assay with YFP-Ufm1-ECFP; type: biochemical; conditions: 0.1, 1, 10 µg/ml; 250 nM substrate; pH 7.5, 37 °C, 60 min
T1 construct: gene LdCL_340047700; partial ORF 427-1518 bp (about codons 143-506) in pEXP5-CT-Topo, E. coli BL21-pLysS, native purification; 43 and 39 kDa bands; L. infantum homolog is LinJ.34.3830
T1 sequence (E9BRI1 entry or part of it): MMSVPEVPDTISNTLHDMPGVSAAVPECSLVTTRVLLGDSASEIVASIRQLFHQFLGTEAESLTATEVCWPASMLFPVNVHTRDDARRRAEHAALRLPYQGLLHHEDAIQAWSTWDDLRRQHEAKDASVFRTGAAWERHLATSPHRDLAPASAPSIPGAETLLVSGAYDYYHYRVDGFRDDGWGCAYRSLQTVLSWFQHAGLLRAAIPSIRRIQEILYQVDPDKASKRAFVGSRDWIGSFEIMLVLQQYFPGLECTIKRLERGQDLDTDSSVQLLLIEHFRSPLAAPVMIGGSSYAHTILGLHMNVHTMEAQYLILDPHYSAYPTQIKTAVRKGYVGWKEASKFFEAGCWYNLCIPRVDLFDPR

[2] = target: T1, LdUfsp (recombinant Ufsp, rLdUfsp); test: biolayer interferometry (Octet, streptavidin sensor); type: binding; conditions: biotinylated protein immobilised

## C[C@@H]1[C@H](O)[C@@H](C)/C=C/C=C/C=C/C=C/C=C/C=C/C=C/[C@H](O[C@@H]2O[C@H](C)[C@@H](O)[C@H](N)[C@@H]2O)C[C@@H]2O[C@](O)(C[C@@H](O)C[C@@H](O)[C@H](O)CC[C@@H](O)C[C@@H](O)CC(=O)O[C@H]1C)C[C@H](O)[C@H]2C(=O)O [Amphotericin B]
[1]
  % Ufm1 processing activity (Δ530, % of 20 mM N-ethyl maleimide): Amphotericin B showed inhibitory effects on the Ufm1 processing activity
[2]
  biolayer interferometry (Octet, streptavidin sensor): Results showed that Amphotericin B can bind to the biotinylated Ufsp protein
